Measurements: US20040241706A1, “Highly specific modulators of GTPases for target validation” (IRM, LLC, priority 2002, published 2004)
Residue numbers refer to the chain shown, from its start.

Assays:
[1] = target: T1, GTPase mutant N116C (Homo sapiens, UniProt P01112, N116C); assay: Ras inhibitor / guanine nucleotide exchange assay with 3H-GDP, mutant N116C; format: binding; conditions: FIG. 17
T1 construct: made in house; host or cells: E. coli BL21-Gold, pGEX vector
Text: (§1) One exemplary assay which can be used are Ras “inhibition” or “guanine nucleotide exchange” assays, as schematically illustrated in FIG. 8, and described in detail in the Examples hereinbelow. The assay detects inhibition of wild-type and mutant Ras proteins by using ^3H-labelled GDP and cold (non-tritiated) synthetic Ras inhibitors.
FIG. 15 provides a bar chart depicting the ability of various guanosine-based modulators to displace radiolabeled GDP from the GTPase mutant N116C.
FIGS. 16 and 17 graphically illustrates the inhibitory effect of the C-6 or N-7 substituted GMP-scaffold modulators on the double mutant N116G-T114C and the mutant N116C, respectively. […] The inhibitory effect was in the range of approximately 50-80%. […]
(§2) For example, purified mutant Ras (19A-116A) or wild type H-Ras protein (0.5 to 20 μg) was incubated in 40 μL of GTP exchange buffer (50 mM Tris-HCl pH 7.5, 50 mM NaCl, 5 mM EDTA, 1 mM DTT, 1 mg/mL BSA) containing either DMSO, GTP (100 μM) or a modulator (100 μM) for 30 min at 25° C. […] Filters were dried and the bound radioactivity was measured by scintillation counting (Beckman, #LS6500).
(§3) Cold GDP was used as a positive control. […] All of the measurements are in comparison to a background radioactivity count, such that the level of inhibition for a given compound was determined by the number of counts in comparison to the control. […]

[2] = target: T2, single mutant N116G Ras (Homo sapiens, UniProt P01112, N116G); assay: Ras inhibitor / guanine nucleotide exchange assay with 3H-GDP, single mutant N116G; format: binding; conditions: FIG. 12 panel B
T2 construct: made in house; host or cells: E. coli BL21-Gold, pGEX vector
Text: as §1
FIG. 12 provides the inhibitor assay results for compounds 43 through 45 (e.g, respectively) as compared to the positive control GTP, for the wild-type Ras protein (panel A) and the single mutant N116G (SEQ ID No. 7). […] Thus, substitution of the N116 residue with a glycine appears to be a favorable mutation leading to expansion of the GTP binding pocket. […]
as §2, §3

[3] = target: T3, mutant Ras (19A-116A) (Homo sapiens, UniProt P01112, L19A/N116A); assay: Ras inhibitor / guanine nucleotide exchange assay with 3H-GDP, double mutant L19A-N116A; format: binding; conditions: for IC50: mutant (19A-116A) Ras, FIG. 34, read-out: IC50 (concentration at which 50% inhibition of GTP binding is observed); for displacement of radioactive GDP from the mutant GTPase: remaining radioactivity count
T3 construct: made in house; host or cells: E. coli BL21-Gold, pGEX vector
Text: as §1
FIG. 11 graphically illustrates the inhibition of double mutant L19A-N116A (SEQ ID No. 11) by various C-6 substituted GTP moieties (compounds 39 through 42, presented as a-d in the figure), as compared to the negative control (nothing added to displace the radiolabeled GDP), positive control (cold GDP), and background count (no GTPase enzyme added).
The GTPase modulators of the present invention were screened against wild-type and/or mutant GTPases for their effectiveness as GTPase inhibitors. Ras inhibitor assays were performed to test the activity of the synthesized modulators against various wild-type and/or mutant GTPases of interest, and/or to compare the different modulators based upon the relative observed level of inhibition.
For example, purified mutant Ras (19A-116A) or wild type H-Ras protein (0.5 to 20 μg) was incubated in 40 μL of GTP exchange buffer (50 mM Tris-HCl pH 7.5, 50 mM NaCl, 5 mM EDTA, 1 mM DTT, 1 mg/mL BSA) containing either DMSO, GTP (100 μM) or a modulator (100 μM) for 30 min at 25° C. This pre-incubation was followed by the additions of 2 μCi ^3H-GDP (NEN, #NET966) and, 10 min later, 25 mM MgCl2. After another 5 min of incubation, the reaction mixture was applied to a nitrocellulose filter (Millipore, #HAWP02500) pre-wetted with wash buffer (50 mM Tris-HCl pH 7.5, 10 mM MgCl2), the filter was then washed using 10 mL of wash buffer. Filters were dried and the bound radioactivity was measured by scintillation counting (Beckman, #LS6500).
Cold GDP was used as a positive control. Since the positive control naturally replaces the radioactive GDP in both the wild-type and mutant GTPase proteins, significant drops in radiolabeling are observed. Water was used as a negative control. All of the measurements are in comparison to a background radioactivity count, such that the level of inhibition for a given compound was determined by the number of counts in comparison to the control. Thus, a high radioactivity count is indicative of a high level of binding between the mutant GTPase and the radioactive GDP.

[4] = target: T4, wild type H-Ras (Homo sapiens, UniProt P01112); assay: Ras inhibitor / guanine nucleotide exchange assay with 3H-GDP, wild type; format: binding; conditions: at a concentration of 100 μM
T4 construct: made in house; host or cells: E. coli BL21-Gold, pGEX vector
Text: as §1
The GTPase modulators of the present invention were screened against wild-type and/or mutant GTPases for their effectiveness as GTPase inhibitors. […]
as §2
Cold GDP was used as a positive control. […] All of the measurements are in comparison to a background radioactivity count, such that the level of inhibition for a given compound was determined by the number of counts in comparison to the control. Thus, a high radioactivity count is indicative of a high level of binding between the mutant GTPase and the radioactive GDP.

[5] = target: T5, mutant enzyme (19A-116A) Ras binding to the Ras binding domain (RBD) of the Raf kinase (Homo sapiens, UniProt P01112, L19A/N116A); assay: Effector binding assay: pull-down with Ras binding domain (RBD) of Raf kinase, western blot; format: biochemical; conditions: FIG. 35
T5 construct: GST (N); made in house; host or cells: E. coli BL21-Gold, pGEX vector (Ras)
Description: The ability of the mutant enzyme (19A-116A) to bind to a known effector of H-Ras was confirmed. Using the Ras binding domain (RBD) of the Raf kinase, the ability of the mutant enzyme to undergo a conformational change upon GTP binding, and, thus, to bind the effector was determined. In brief, purified mutant or wild-type proteins (150 ng) were incubated in 1 mL of loading buffer (100 mM Tris-HCl pH 7.5, 2 mM EDTA, 1 mM DTT, 1 mg/mL BSA) in the presence of 10 mM of GDP, GTP, 7 d or both GTP and 7 d for 15 min at 25° C. for loading the protein with the appropriate nucleotides. Following loading, MgCl2 (20 mM) was added along with GST-RBD (1.2 mg), comprising Raf kinase amino acids 53-131, bound to glutathione sepharose beads. The resulting suspensions were incubated with rotation for 30 min at 4° C. The beads were then washed three times with 1 mL of washing buffer (50 mM Tris-HCl pH 7.5, 50 mM NaCl, 20 mM MgCl2, 1 mM DTT) to remove unbound H-Ras proteins. The beads were boiled in SDS loading buffer, and the samples were separated by electrophoresis. Following transfer, the PVDF membrane was probed with anti-H-Ras and the amount of H-Ras bound to the RBD glutathione sepharose beads was visualized using anti-rabbit HRP in conjunction with WestPico (Pierce).

[6] = target: T6, mutant Rap1B enzyme (Homo sapiens, UniProt P61224, L19A/N116A); assay: Selective binding to mutant Rap1B (alanine at positions 19 and 116); conditions: FIG. 33B
T6 construct: made in house; host or cells: E. coli BL21-Gold, pGEX-4T
T6 sequence (P61224 1-184 L19A/N116A): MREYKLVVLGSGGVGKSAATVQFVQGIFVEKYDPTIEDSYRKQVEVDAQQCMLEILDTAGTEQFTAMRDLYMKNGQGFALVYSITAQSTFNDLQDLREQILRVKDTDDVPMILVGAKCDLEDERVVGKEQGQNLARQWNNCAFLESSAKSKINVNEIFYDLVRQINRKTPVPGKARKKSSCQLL
Text: (§4) To confirm the general applicability of the methods and compositions of the present invention in the context of GTPases other than H-Ras, alanine substitutions at amino acids corresponding to positions 19 and 116 of Ras were introduced into the Rap1B GTPase. As shown in the alignment of Table 1, the identical amino acid residues, i.e., leucine at position 19, and asparagine at position 116, are present in Rap1B.
(§5) The mutant Rap1B protein construct was made as described above with respect to the Ras mutant proteins. All mutant proteins were made in the pGEX-4T bacterial expression system using the Quickchange protocol […] according to the manufacturer's instructions. Mutant Rap1B cDNAs were transformed individually in BL21-Gold competent cells (Stratagene) according to the manufacturer's instructions. An overnight culture of BL21-Gold cells containing one of the GST-Rap1B plasmids described above was diluted 1:50 in Superbroth medium (Q-Biogene) supplemented with 50 mg/L carbenicillin. After it had grown to an OD=0.6, synthesis of the GST-Rap1B protein was induced by the addition of IPTG (50 mM) and by further incubation at 30° C. for 12 h. After centrifugation at 3,500 g for 15 min at 4° C., the cell pellet was frozen at −80° C. for 1 h. […] Protein concentration was determined by a Bradford assay and the protein purity was assessed by gel electrophoresis.

[7] = target: T7, wild-type Rap1B enzyme (Homo sapiens, UniProt P61224); assay: Selective binding, wild-type Rap1B; conditions: FIG. 33B
T7 construct: GST (N); made in house; host or cells: E. coli BL21-Gold, pGEX-4T (described for the mutant; inferred for the wild type)
T7 sequence (P61224 1-184): T6 sequence (P61224 1-184 L19A/N116A) with A19L, A116N
Text: as §4, §5

Row | Compound | inhibition of the mutant GTPase (decrease in radiolabel remaining bound) [2] | IC50 [3] [µM] | displacement of radioactive GDP from the mutant GTPase [3] | effector (Raf RBD) binding of the mutant enzyme [5] | binding to the mutant Rap1B enzyme [6] | effect on the wild-type Rap1B enzyme [7] | further results
1 | 6-S-mercaptoguanosine-5′-phosphate [Compound 82] | – | – | – | – | – | – | inhibitory effect on the N116C mutant [1]: 50-80%
2 | C=CCOc1nc(N)nc2c1ncn2[C@@H]1O[C@H](COP(=O)(O)OP(=O)(O)OP(=O)(O)O)[C@@H](O)[C@H]1O [Compound 43, 6-O-allyl guanosine-5′-triphosphate] | significantly inhibit | – | – | – | – | – | –
3 | Nc1nc(=S)c2ncn([C@@H]3O[C@H](COP(=O)(O)OP(=O)(O)OP(=O)(O)O)[C@@H](O)[C@H]3O)c2[nH]1 [Compound 45, 6-S-mercaptoguanosine-5′-triphosphate] | significantly inhibit | – | – | – | – | – | –
4 | Nc1nc2c(c(CCc3ccccc3)cn2[C@@H]2O[C@H](COP(=O)(O)OP(=O)(O)O)[C@@H](O)[C@H]2O)c(=O)[nH]1 [Compound 60, 7-deaza-7-(2″-phenyl)ethyl guanosine-5′-diphosphate] | – | 0.3 | displaced the radioactive GDP | prevents effector binding | bind tightly | negligably affecting | potency relative to GDP at displacing GTP from the mutant GTPase protein ([3]; ratio of IC50 values): 5 times; inhibition of wild-type H-Ras [4]: does not inhibit
5 | Nc1nc2c(ncn2[C@@H]2O[C@H](COP(=O)(O)OP(=O)(O)O)[C@@H](O)[C@H]2O)c(=O)[nH]1 [GDP, reference compound] | – | ~1.5 | – | – | – | – | –
6 | (2-phenyl)ethyl-GTP [Compound 52] | – | – | displaced the radioactive GDP | prompts effector binding | bind tightly | negligably affecting | –
